In PubChem BioAssay (NCI):
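Following 48 hours of exposure in 96-well plates, responses at five concentrations were used to interpolate endpoints linearly. TGI: total growth inhibition.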

Legend:
Test in all cases: inhibition of tumour cell growth, NCI panel, 48 h
[1] = system: COLO 205 colon
[2] = system: EKVX NSCLC
[3] = system: HCC-2998 colon
[4] = system: HCT-15 colon
[5] = system: LOX IMVI melanoma
[6] = system: MCF7 breast
[7] = system: PC-3 prostate
[8] = system: SK-MEL-5 melanoma
[9] = system: SR leukemia
[10] = system: UO-31 renal

`Clc1ccc(/C(=C\c2ccccc2)Cn2ccnc2)cc1` gave a TGI [1] of 28.6 µM, a TGI [2] of 68.4 µM and a TGI [3] of 48.8 µM. For the same compound, the TGI [4] was 39.1 µM, the TGI [5] was 22.9 µM and the TGI [6] was 44.5 µM. It also gave a TGI [7] of 31.9 µM, a TGI [8] of 25.6 µM and a TGI [9] greater than 100 µM. It also gave a TGI [10] of 32.4 µM.
`CC1(C)OC2COC3([C@@H]4OC(C)(C)O[C@@H]4CO)OC(C)(C)OC3C2O1` (stereo not given in full) gave a TGI [1] greater than 100 µM, a TGI [2] greater than 100 µM and a TGI [3] greater than 100 µM. For the same compound, the TGI [4] was greater than 100 µM, the TGI [5] was greater than 100 µM and the TGI [6] was greater than 100 µM. For the same compound, the TGI [7] was greater than 100 µM, the TGI [8] was greater than 100 µM and the TGI [9] was greater than 100 µM. For the same compound, the TGI [10] was greater than 100 µM.
Compound `CC(C)[Si](OC/C(=C/COC(C)(C)C)[C@H]1CC=C(C(=O)c2ccccc2N2CN(C)C(=O)N(C)C2)C1)(C(C)C)C(C)C` has a TGI [1] of 31 µM, a TGI [2] of 30.3 µM and a TGI [3] of 31 µM. For the same compound, the TGI [4] was 27.1 µM, the TGI [5] was 4.06 µM and the TGI [6] was 15.1 µM. For the same compound, the TGI [7] was 18.1 µM, the TGI [8] was 23.1 µM and the TGI [9] was 5.95 µM. The TGI [10] was 23.1 µM.
`CCNc1ncnc2sc(SCc3ccccc3)nc12` showed a TGI [1] greater than 100 µM, a TGI [2] greater than 100 µM and a TGI [3] greater than 100 µM. It also gave a TGI [4] greater than 100 µM, a TGI [5] greater than 100 µM and a TGI [6] greater than 100 µM. It also gave a TGI [7] greater than 100 µM, a TGI [8] greater than 100 µM and a TGI [9] greater than 100 µM. It also gave a TGI [10] greater than 100 µM.
Work on `C(=C\c1ccccc1)/COc1ccccc1C(N1CCOCC1)n1nc2ccccc2n1` (stereo not given) yielded a TGI [1] of 36.6 µM, a TGI [2] of 49.6 µM and a TGI [3] of 34.8 µM. It also gave a TGI [4] of 11.7 µM, a TGI [5] of 13.5 µM and a TGI [6] of 6.57 µM. It also gave a TGI [7] of 10.9 µM, a TGI [8] of 13.8 µM and a TGI [9] of 5.49 µM. For the same compound, the TGI [10] was 31.6 µM.
`Cc1cc(NS(=O)(=O)c2ccc(NC(NC(=O)C(C(F)(F)F)C(F)(F)F)(C(F)(F)F)C(F)(F)F)cc2)no1` gave a TGI [1] greater than 100 µM, a TGI [2] greater than 100 µM and a TGI [3] greater than 100 µM. It also gave a TGI [4] greater than 100 µM, a TGI [5] greater than 100 µM and a TGI [6] greater than 100 µM. The TGI [7] was greater than 100 µM, the TGI [8] was greater than 100 µM and the TGI [9] was greater than 100 µM. For the same compound, the TGI [10] was greater than 100 µM.
`O=C(/C=C/c1ccc2c(c1)OCO2)Cc1nc2ccccc2[nH]c1=O` showed a TGI [1] greater than 100 µM, a TGI [2] greater than 100 µM and a TGI [3] of 86.8 µM. For the same compound, the TGI [4] was greater than 100 µM, the TGI [5] was greater than 100 µM and the TGI [6] was greater than 100 µM. For the same compound, the TGI [7] was 47.9 µM, the TGI [8] was greater than 100 µM and the TGI [9] was greater than 100 µM. For the same compound, the TGI [10] was 50.9 µM.
For `C=CC(=O)N1C/C(=C\c2ccc(Cl)cc2)C(=O)/C(=C/c2ccc(Cl)cc2)C1`, the TGI [1] was 0.719 µM, the TGI [2] was 4.72 µM and the TGI [3] was 0.739 µM. For the same compound, the TGI [4] was 0.497 µM, the TGI [5] was 0.229 µM and the TGI [6] was 0.845 µM. For the same compound, the TGI [7] was 0.751 µM, the TGI [8] was 5.11 µM and the TGI [9] was greater than 100 µM. The TGI [10] was 1.17 µM.
`COc1nc2c(N3CCCC3)nc(N3CCNCC3)nc2nc1NCc1ccccc1` gave a TGI [1] of 1.98 µM, a TGI [2] of 10.8 µM and a TGI [3] of 2.79 µM. The TGI [4] was 3.82 µM, the TGI [5] was 2.9 µM and the TGI [6] was 3.46 µM. It also gave a TGI [7] of 6.42 µM, a TGI [8] of 2.88 µM and a TGI [9] of 3.37 µM. The TGI [10] was 2.85 µM.
In the case of `COc1ccc([C@H]2C=[N+]([O-])O[C@H](OC3CCCC3)[C@@H]2OC(C)=O)cc1OC`, the TGI [1] is reported as 30.9 µM, the TGI [2] is reported as 50.2 µM and the TGI [3] is reported as 72.8 µM. The TGI [4] was 78.5 µM, the TGI [5] was 31.3 µM and the TGI [6] was 49.5 µM. For the same compound, the TGI [7] was greater than 100 µM, the TGI [8] was 29.6 µM and the TGI [9] was greater than 100 µM. The TGI [10] was 40.6 µM.
For `CC(C)N1CN(c2ccccc2)C2(CCN(CCCC(=O)c3ccc(F)cc3)CC2)C1=O`, the TGI [1] was 1.7 µM, the TGI [2] was greater than 100 µM and the TGI [3] was 27.7 µM. The TGI [4] was 40.5 µM, the TGI [5] was 20.2 µM and the TGI [6] was 13.1 µM. It also gave a TGI [7] greater than 71 µM, a TGI [8] of 6.53 µM and a TGI [9] of 46.1 µM. For the same compound, the TGI [10] was 58 µM.
`COc1ccc(N2C(=O)C3c4[nH]c5ccccc5c4C4CCCCCCCCCC4C3C2=O)cc1` (stereo not given) was tested, and the TGI [1] was greater than 10 µM, the TGI [2] was greater than 10 µM and the TGI [3] was greater than 10 µM. It also gave a TGI [4] greater than 10 µM, a TGI [5] greater than 10 µM and a TGI [6] greater than 10 µM. It also gave a TGI [7] greater than 10 µM, a TGI [8] greater than 10 µM and a TGI [9] greater than 10 µM. For the same compound, the TGI [10] was greater than 10 µM.
Work on `CCOP(=O)(OCC)OC1CC(n2cc(C)c(=O)n(C)c2=O)OC1CO[Si](C)(C)C(C)(C)C` (stereo not given) yielded a TGI [1] greater than 100 µM, a TGI [2] of 68.4 µM and a TGI [3] greater than 100 µM. The TGI [4] was greater than 100 µM, the TGI [5] was greater than 100 µM and the TGI [6] was greater than 100 µM. The TGI [7] was greater than 100 µM, the TGI [8] was greater than 100 µM and the TGI [9] was greater than 100 µM. The TGI [10] was 7.15 µM.
`O=C1OC(c2ccccc2)N(C(=O)c2ccccc2)C1Cc1ccc(OCc2ccccc2)cc1` (stereo not given) was tested, and the TGI [1] was greater than 100 µM, the TGI [2] was greater than 100 µM and the TGI [3] was greater than 100 µM. It also gave a TGI [4] greater than 100 µM, a TGI [5] greater than 100 µM and a TGI [6] of 62.3 µM. The TGI [7] was greater than 100 µM, the TGI [8] was greater than 100 µM and the TGI [9] was greater than 100 µM. It also gave a TGI [10] greater than 100 µM.
With `O=C1C2=Nc3ccccc3C(O)(C(=O)O)N2c2ccccc21` (stereo not given) the TGI [1] was 36.6 µM, the TGI [2] was greater than 100 µM and the TGI [3] was greater than 100 µM. The TGI [4] was greater than 100 µM, the TGI [5] was 59.2 µM and the TGI [6] was 46.8 µM. It also gave a TGI [7] of 20 µM, a TGI [8] of 27.5 µM and a TGI [9] greater than 100 µM. It also gave a TGI [10] greater than 100 µM.
`C[C@H]1[C@H](C)CC[C@]2(C(=O)OC3OC(CO)C(O)C(O)C3O)CC[C@]3(C)C(=CC[C@@H]4[C@@]5(C)C[C@H]6OC(=O)c7cc(O)c(O)c(O)c7-c7c(cc(O)c(O)c7O)C(=O)O[C@@H]6C(CO)(CO)[C@@H]5CC[C@]43C)[C@H]12` (stereo not given in full) showed a TGI [1] greater than 100 µM, a TGI [2] greater than 100 µM and a TGI [3] greater than 100 µM. The TGI [4] was greater than 100 µM, the TGI [5] was 34.5 µM and the TGI [6] was 38.5 µM. It also gave a TGI [7] greater than 100 µM, a TGI [8] greater than 100 µM and a TGI [9] greater than 96.3 µM. It also gave a TGI [10] greater than 100 µM.
Work on `CN(C)c1ccc(Cc2cc3c(O)ccc(O)c3cc(Cc3ccc(N(C)C)cc3)c2=O)cc1` yielded a TGI [1] of 36.6 µM, a TGI [2] of 44.2 µM and a TGI [3] of 64 µM. For the same compound, the TGI [4] was 58 µM, the TGI [5] was 40.7 µM and the TGI [6] was 58.6 µM. For the same compound, the TGI [7] was 32.7 µM, the TGI [8] was 39.3 µM and the TGI [9] was greater than 26.5 µM. The TGI [10] was 27.7 µM.
